Measurements from patent US20260138976A1 (Hoffmann-La Roche Inc., priority 2022, published 2026).

Columns and labels:
[1] = target: T1, DGKα (hDGKalpha(1-735)-N-His) (Homo sapiens, UniProt P23743); experiment: In vitro DGK inhibition assay, DGKalpha ADP Glo (in house); format: biochemical; conditions: 4 nM DGKα, 25 μM ATP, 125 uM DLG in liposomes, 1 hour reaction
T1 construct: hDGKalpha(1-735)-N-His; His (N); made in house; host or cells: Sf21 insect cells (baculovirus)
Procedure, shortened: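 Full-length His-tagged human DGKα (4 nM) or DGKζ (2 nM), expressed in Sf21 cells, phosphorylated 125 µM DLG in PS/PC liposomes with ATP at 25 µM (α) or 50 µM (ζ) for 1 h. ADP was measured by ADP-Glo luminescence. Compounds were tested as 11-point 1:3 series in 2% DMSO.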

primary human T-cells = experiment: Proliferation assay (5 days, CellTiter-Glo, CD3-stimulated T-cells); format: cell-based; conditions: for Emax proliferation (% activation): CD3 condition, normalised to DMSO (neutral) and 20 μM reference compound A1 = 100%; for EC50: Homo sapiens, T-cell, 120 h, CD3-stimulated primary human T-cells, 5 days, CellTiter-Glo, fitted sigmoidal curve, read-out: Tcell Proliferation CD3 EC50
Procedure, shortened: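 Expanded primary human T-cells, 100 k cells/well, were stimulated with plate-coated CD3 antibody (donor-titrated) and given compound in a 5 or 6 pt dose response from 20 μM or 10 μM final top, 0.2% DMSO final. ATP was read by CellTiter-Glo after 5 days. EC50 and Emax were reported as % of 20 μM reference compound A1.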

T1 sequence (P23743 whole entry): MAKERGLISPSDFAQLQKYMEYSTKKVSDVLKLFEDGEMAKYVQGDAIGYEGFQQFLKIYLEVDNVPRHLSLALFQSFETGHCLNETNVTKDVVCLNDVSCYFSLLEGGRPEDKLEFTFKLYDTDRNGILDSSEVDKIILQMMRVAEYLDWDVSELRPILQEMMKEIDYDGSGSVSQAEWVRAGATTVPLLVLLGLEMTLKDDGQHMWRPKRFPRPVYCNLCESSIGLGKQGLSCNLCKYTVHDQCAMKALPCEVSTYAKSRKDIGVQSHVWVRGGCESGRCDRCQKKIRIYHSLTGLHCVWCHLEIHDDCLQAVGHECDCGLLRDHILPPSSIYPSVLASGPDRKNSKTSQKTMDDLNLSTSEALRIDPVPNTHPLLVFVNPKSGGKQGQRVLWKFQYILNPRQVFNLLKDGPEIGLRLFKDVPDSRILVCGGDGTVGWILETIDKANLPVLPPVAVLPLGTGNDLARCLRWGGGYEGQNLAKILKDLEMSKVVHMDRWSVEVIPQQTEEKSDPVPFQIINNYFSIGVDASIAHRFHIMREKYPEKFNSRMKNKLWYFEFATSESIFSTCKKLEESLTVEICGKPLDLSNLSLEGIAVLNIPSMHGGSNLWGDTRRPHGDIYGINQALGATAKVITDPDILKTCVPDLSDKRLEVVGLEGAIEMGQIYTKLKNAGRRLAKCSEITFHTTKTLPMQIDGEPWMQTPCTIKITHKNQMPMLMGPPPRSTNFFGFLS

IC50 [1] | Compound | Emax proliferation (% activation) (primary human T-cells) | EC50 (primary human T-cells)
1.14 µM | CC(C)(c1nnc(-c2ccc3c(c2)N(Cc2ccc(-c4ccc(OC(F)(F)F)cn4)cc2)C(=O)[C@@H](N)CS3(=O)=O)o1)C(F)(F)F [Example 165, (3R)-3-amino-1,1-dioxo-7-[5-(2,2,2-trifluoro-1,1-dimethyl-ethyl)-1,3,4-oxadiazol-2-yl]-5-[[4-[5-(trifluoromethoxy)-2-pyridyl]phenyl]methyl]-2,3-dihydro-1λ^6,5-benzothiazepin-4-one] | 139 % activation | 153 nM
> 62.5 µM | N[C@H]1CS(=O)(=O)c2ccc(-c3nnc(C(F)C(F)(F)F)o3)cc2N(Cc2ccc(-c3noc(C4CC4)n3)cc2)C1=O (stereo partly drawn) [Example 168, (3R)-3-amino-5-[[4-(5-cyclopropyl-1,2,4-oxadiazol-3-yl)phenyl]methyl]-1,1-dioxo-7-[5-(1,2,2,2-tetrafluoroethyl)-1,3,4-oxadiazol-2-yl]-2,3-dihydro-1λ^6,5-benzothiazepin-4-one] | 62 % activation | 2620 nM
> 62.5 µM | CC(O)(c1nnc(-c2ccc3c(c2)N(Cc2ccc(-c4noc(C5CC5)n4)cc2)C(=O)[C@@H](N)CS3(=O)=O)o1)C(F)(F)F (stereo partly drawn) [Example 170] | 89 % activation | 1010 nM
> 60 µM | N[C@H]1CS(=O)(=O)c2ccc(-c3nnc(C(N)(C4CC4)C(F)(F)F)o3)cc2N(Cc2ccc(-c3noc(C4CC4)n3)cc2)C1=O (stereo partly drawn) [Example 171] | 109 % activation | 1520 nM
2.52 µM | N#CC1(c2nnc(-c3ccc4c(c3)N(Cc3ccc(-c5ccc(OC(F)(F)F)cn5)cc3)C(=O)[C@@H](N)CS4(=O)=O)o2)CCC1 [Example 172, 1-[5-[(3R)-3-amino-1,1,4-trioxo-5-[[4-[5-(trifluoromethoxy)-2-pyridyl]phenyl]methyl]-2,3-dihydro-1λ^6,5-benzothiazepin-7-yl]-1,3,4-oxadiazol-2-yl]cyclobutanecarbonitrile] | 101 % activation | 303 nM
0.961 µM | CC(C)(CC#N)c1nnc(-c2ccc3c(c2)N(Cc2ccc(-c4ccc(OC(F)(F)F)cn4)cc2)C(=O)[C@@H](N)CS3(=O)=O)o1 [Example 175, 3-[5-[(3R)-3-amino-1,1,4-trioxo-5-[[4-[5-(trifluoromethoxy)-2-pyridyl]phenyl]methyl]-2,3-dihydro-1λ^6,5-benzothiazepin-7-yl]-1,3,4-oxadiazol-2-yl]-3-methyl-butanenitrile] | 105 % activation | 121 nM

Continued, molecule first:

Compound | IC50 [1] | Emax proliferation (% activation) (primary human T-cells) | EC50 (primary human T-cells)
CC(C)(C#N)c1nnc(-c2ccc3c(c2)N(Cc2ccc(-c4cc(OC(F)(F)F)ccn4)cc2)C(=O)[C@@H](N)CS3(=O)=O)o1 [Example 126, 2-[5-[(3R)-3-amino-1,1,4-trioxo-5-[[4-[4-(trifluoromethoxy)-2-pyridyl]phenyl]methyl]-2,3-dihydro-1λ^6,5-benzothiazepin-7-yl]-1,3,4-oxadiazol-2-yl]-2-methyl-propanenitrile] | 4.38 µM | 212 % activation | 2490 nM
CC(C)(C#N)c1nnc(-c2ccc3c(c2)N(Cc2ccc(-c4ncc(C(F)(F)F)cn4)cc2)C(=O)[C@@H](N)CS3(=O)=O)o1 [Example 127, 2-[5-[(3R)-3-amino-1,1,4-trioxo-5-[[4-[5-(trifluoromethyl)pyrimidin-2-yl]phenyl]methyl]-2,3-dihydro-1λ^6,5-benzothiazepin-7-yl]-1,3,4-oxadiazol-2-yl]-2-methyl-propanenitrile] | > 60 µM | 130 % activation | 1980 nM
CC(C)(C#N)c1nnc(-c2ccc3c(c2)N(Cc2ccc(-c4ccc(OC(F)(F)C(F)(F)F)cn4)cc2)C(=O)[C@@H](N)CS3(=O)=O)o1 [Example 129, 2-[5-[(3R)-3-amino-1,1,4-trioxo-5-[[4-[5-(1,1,2,2,2-pentafluoroethoxy)-2-pyridyl]phenyl]methyl]-2,3-dihydro-1λ^6,5-benzothiazepin-7-yl]-1,3,4-oxadiazol-2-yl]-2-methyl-propanenitrile] | 1.68 µM | 119 % activation | 22.8 nM
N[C@H]1CS(=O)(=O)c2ccc(-c3nnc(C4(C(F)F)CNC4)o3)cc2N(Cc2ccc(-c3ccc(C(F)(F)F)cc3)cc2)C1=O [Example 152] | > 60 µM | 90 % activation | 1440 nM
C[C@@](N)(c1nnc(-c2ccc3c(c2)N(Cc2ccc(-c4ccc(OC(F)(F)F)cn4)cc2)C(=O)[C@@H](N)CS3(=O)=O)o1)C(F)(F)F [Example 153, (3R)-3-amino-7-[5-[(1R)-1-amino-2,2,2-trifluoro-1-methyl-ethyl]-1,3,4-oxadiazol-2-yl]-1,1-dioxo-5-[[4-[5-(trifluoromethoxy)-2-pyridyl]phenyl]methyl]-2,3-dihydro-1λ^6,5-benzothiazepin-4-one] | 2.05 µM | 178 % activation | 130 nM
C[C@@](N)(c1nnc(-c2ccc3c(c2)N(Cc2ccc(-c4ccc(C(F)(F)F)cn4)cc2)C(=O)[C@@H](N)CS3(=O)=O)o1)C(F)(F)F [Example 154, (3R)-3-amino-7-[5-[(1R)-1-amino-2,2,2-trifluoro-1-methyl-ethyl]-1,3,4-oxadiazol-2-yl]-1,1-dioxo-5-[[4-[5-(trifluoromethyl)-2-pyridyl]phenyl]methyl]-2,3-dihydro-1λ^6,5-benzothiazepin-4-one] | 23.6 µM | 151 % activation | 984 nM
C[C@@](N)(c1nnc(-c2ccc3c(c2)N(Cc2ccc(-n4nnc(C(F)(F)F)n4)cc2)C(=O)[C@@H](N)CS3(=O)=O)o1)C(F)(F)F [Example 156, (3R)-3-amino-7-[5-[(1R)-1-amino-2,2,2-trifluoro-1-methyl-ethyl]-1,3,4-oxadiazol-2-yl]-1,1-dioxo-5-[[4-[5-(trifluoromethyl)tetrazo 1-2-yl]phenyl]methyl]-2,3-dihydro-1λ^6,5-benzothiazepin-4-one] | 17.8 µM | 141 % activation | 1710 nM
COC(=O)N1CC2CC(c3nnc(-c4ccc5c(c4)N(Cc4ccc(-c6noc(C(F)(F)F)n6)cc4)C(=O)[C@@H](N)CS5(=O)=O)o3)(C2)C1 [Example 158, methyl 1-[5-[(3R)-3-amino-1,1,4-trioxo-5-[[4-[5-(trifluoromethyl)-1,2,4-oxadiazol-3-yl]phenyl]methyl]-2,3-dihydro-1λ^6,5-benzothiazepin-7-yl]-1,3,4-oxadiazol-2-yl]-3-azabicyclo[3.1.1]heptane-3-carboxylate] | > 60 µM | 150 % activation | 304 nM
N[C@H]1CS(=O)(=O)c2ccc(-c3nnc(N4CCC(F)(F)CC4)o3)cc2N(Cc2ccc(-c3ccc(C(F)(F)F)cn3)cc2)C1=O [Example 160] | 5.18 µM | 150 % activation | 1300 nM
N[C@H]1CS(=O)(=O)c2ccc(-c3nnc(N4CCC(F)(F)CC4)o3)cc2N(Cc2ccc(-n3ccc(C(F)(F)F)n3)cc2)C1=O [Example 162, (3R)-3-amino-7-[5-(4,4-difluoro-1-piperidyl)-1,3,4-oxadiazol-2-yl]-1,1-dioxo-5-[[4-[3-(trifluoromethyl)pyrazol-1-yl]phenyl]methyl]-2,3-dihydro-1λ^6,5-benzothiazepin-4-one] | > 62.5 µM | 186 % activation | 563 nM
